For 24 compounds, IC50 and Ratio results are on record in ChEMBL document CHEMBL1133280, “Discovery and synthesis of a potent sulfonamide ET(B) selective antagonist” (Bioorg Med Chem Lett, 2000).

The target of experiment [1] is T1, Endothelin receptor type B (Sus scrofa, UniProt P35463).
T1 sequence (P35463 whole entry): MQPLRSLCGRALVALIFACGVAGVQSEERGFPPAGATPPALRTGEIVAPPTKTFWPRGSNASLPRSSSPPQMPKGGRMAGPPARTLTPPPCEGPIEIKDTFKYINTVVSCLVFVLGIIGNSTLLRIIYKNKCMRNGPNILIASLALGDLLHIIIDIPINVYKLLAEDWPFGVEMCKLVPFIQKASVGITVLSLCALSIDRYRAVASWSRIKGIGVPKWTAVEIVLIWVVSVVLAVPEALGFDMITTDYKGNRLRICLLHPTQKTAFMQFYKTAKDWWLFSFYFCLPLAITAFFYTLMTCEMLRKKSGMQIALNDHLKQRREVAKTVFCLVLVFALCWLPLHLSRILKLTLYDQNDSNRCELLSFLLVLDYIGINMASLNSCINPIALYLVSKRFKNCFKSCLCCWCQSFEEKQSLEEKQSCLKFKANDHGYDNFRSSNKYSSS
Briefly: Binding affinity towards displacement of [125 I] ET-3 from COS-7 cells transfected with porcine Endothelin B receptor. It is filed as cell-based.

Another experiment addresses T2, Endothelin-1 receptor (Rattus norvegicus, UniProt P26684).
T2 sequence (P26684 whole entry): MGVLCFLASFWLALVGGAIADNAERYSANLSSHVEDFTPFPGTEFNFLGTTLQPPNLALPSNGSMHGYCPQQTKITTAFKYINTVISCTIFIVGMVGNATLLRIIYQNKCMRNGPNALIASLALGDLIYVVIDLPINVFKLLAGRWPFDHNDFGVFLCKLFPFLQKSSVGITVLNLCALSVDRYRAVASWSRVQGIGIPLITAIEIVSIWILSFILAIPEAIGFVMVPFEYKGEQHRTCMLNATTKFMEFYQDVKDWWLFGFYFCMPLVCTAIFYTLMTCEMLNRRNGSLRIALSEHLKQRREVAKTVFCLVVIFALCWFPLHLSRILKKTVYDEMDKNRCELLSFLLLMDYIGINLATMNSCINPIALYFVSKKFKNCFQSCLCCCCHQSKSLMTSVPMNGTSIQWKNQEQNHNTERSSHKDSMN
Nature of the experiment: Displacement of [125 I] ET-1 from rat aortic smooth muscle A7r5 cells transfected with Endothelin A receptor. It is filed as cell-based.

The nature of experiment [2]: Ratio of IC50 of rat ETA receptor to that of porcine ETB receptor.

`COc1cccc(Sc2c(NS(=O)(=O)c3ccc(C(C)(C)C)cc3)noc2CCCC(C)=O)c1`: the results for the 50% inhibitory concentration (IC50) (in experiment [1]; on Endothelin-1 receptor) were 0.4 µM and 1.3 µM, respectively. Further, the Ratio in experiment [2] was 3.3.

With `COc1cccc(Sc2c(NS(=O)(=O)c3ccc(C(C)(C)C)cc3)noc2CCCO)c1`, the IC50 – broadly, the concentration at which inhibition is half-maximal – was found to be 0.14 µM in experiment [1] and 0.32 µM on Endothelin-1 receptor. The Ratio in experiment [2] is 2.3.

Turning to `COC(=O)CCCc1onc(NS(=O)(=O)c2ccc(C(C)(C)C)cc2)c1Sc1cccc(OC)c1`, the concentration for half-maximal inhibition (IC50) is 0.31 µM in experiment [1] and 0.4 µM on Endothelin-1 receptor. Further, the Ratio in experiment [2] worked out at 1.3.

For `COc1cccc(Sc2c(NS(=O)(=O)c3ccc(C(C)(C)C)cc3)noc2CCCC(=O)O)c1`, the concentration for half-maximal inhibition (IC50) in experiment [1] was 0.5 µM. Also, the Ratio in experiment [2] was found to be 8.6.

`Cc1snc(NS(=O)(=O)c2ccc(N)cc2)c1C` registered a half-maximal inhibitory concentration (IC50) on Endothelin-1 receptor of 28 µM.

`Cc1onc(NS(=O)(=O)c2ccc(N)cc2)c1Cl` showed an IC50 on Endothelin-1 receptor of 3.5 µM.

For `Cc1onc(NS(=O)(=O)c2ccc(C(C)(C)C)cc2)c1C`, the IC50 on Endothelin-1 receptor was 28 µM.

For the compound `COc1cccc(Sc2c(NS(=O)(=O)c3ccc(C(C)(C)C)cc3)noc2C)c1`, the IC50 was determined as 0.3 µM in experiment [1] and 0.53 µM at Endothelin-1 receptor. In addition, the Ratio in experiment [2] is 1.8.

For `CCc1c(NS(=O)(=O)c2ccc(N)cc2)noc1C`, the IC50 on Endothelin-1 receptor worked out at 3.4 µM.

On to `Cc1onc(NS(=O)(=O)c2ccc(N)cc2)c1I`, for which the half-maximal inhibitory concentration (IC50) in experiment [1] is > 1000 µM; on Endothelin-1 receptor, 11 µM.

With `COc1cccc(Sc2c(NS(=O)(=O)c3ccc(C(C)(C)C)cc3)noc2CCCC=O)c1`, the IC50 in experiment [1] was found to be 0.002 µM; at Endothelin-1 receptor it was 1.7 µM. In experiment [2], the Ratio was determined as 850.

As to `Cc1onc(NS(=O)(=O)c2ccc(C(C)(C)C)cc2)c1I`, the 50% inhibitory concentration (IC50) is 30 µM in experiment [1] and > 100 µM at Endothelin-1 receptor.

`COc1cccc(Sc2c(NS(=O)(=O)c3ccc(C(C)(C)C)cc3)noc2CO)c1`: the values for the IC50 (in experiment [1]; on Endothelin-1 receptor) were 0.56 µM and 6.2 µM, respectively. For the same compound, in experiment [2], the Ratio turned out to be 11.

Regarding `COc1cccc(Sc2c(NS(=O)(=O)c3ccc(C(C)(C)C)cc3)noc2CCCC(N)=O)c1`, the IC50 stood at 0.24 µM in experiment [1] and 6.3 µM at Endothelin-1 receptor. In experiment [2], the Ratio was 26.

For the compound `COc1cccc(Sc2c(NS(=O)(=O)c3ccc(C(C)(C)C)cc3)noc2CCCCO)c1`, the IC50 in experiment [1] was determined as 0.24 µM; on Endothelin-1 receptor it was 0.63 µM. Besides, the Ratio in experiment [2] was 2.6.

As for `CCc1onc(NS(=O)(=O)c2ccc(C(C)(C)C)cc2)c1Sc1cccc(OC)c1`, the IC50 in experiment [1] was found to be 2.8 µM; on Endothelin-1 receptor, 0.8 µM. In addition, the Ratio in experiment [2] turned out to be 0.3.

Consider `COc1cccc(Sc2c(NS(=O)(=O)c3ccc(C(C)(C)C)cc3)noc2CCC/C=N/O)c1`, for which the values for the IC50 (in experiment [1]; at Endothelin-1 receptor) were 0.085 µM and 1.5 µM, respectively. In experiment [2], the Ratio was 18.

On to `COc1cccc(Sc2c(NS(=O)(=O)c3ccc(C(C)(C)C)cc3)noc2CCC=O)c1`, for which the results for the IC50 (in experiment [1]; on Endothelin-1 receptor) were 0.5 µM and 0.38 µM, respectively. Also, the Ratio in experiment [2] was 0.8.

Take `Cc1onc(NS(=O)(=O)c2ccc(N)cc2)c1Cc1ccccc1`: at Endothelin-1 receptor, the 50% inhibitory concentration (IC50) was 71 µM.

For the compound `CSc1c(NS(=O)(=O)c2ccc(C(C)(C)C)cc2)noc1C`, the IC50 was 35 µM in experiment [1] and > 100 µM at Endothelin-1 receptor.

Take `COc1cccc(Sc2c(NS(=O)(=O)c3ccc(C(C)(C)C)cc3)noc2CCO)c1`: the values for the IC50 (in experiment [1]; at Endothelin-1 receptor) were 0.43 µM and 0.77 µM, respectively. For the same compound, in experiment [2], the Ratio was determined as 1.8.

For `Cc1nsc(NS(=O)(=O)c2ccc(C(C)(C)C)cc2)c1C`, the half-maximal inhibitory concentration (IC50) on Endothelin-1 receptor was > 500 µM.

As for `COc1cccc(Sc2c(NS(=O)(=O)c3ccc(C(C)(C)C)cc3)noc2CCCC#N)c1`, the IC50 in experiment [1] came out at 0.52 µM; at Endothelin-1 receptor, 1.3 µM. For the same compound, the Ratio in experiment [2] came out at 2.5.

In the case of `COc1cccc(Sc2c(NS(=O)(=O)c3ccc(C(C)(C)C)cc3)noc2CCCCC=O)c1`, the IC50 in experiment [1] is 0.02 µM; on Endothelin-1 receptor, 1.4 µM. Further, in experiment [2], the Ratio came out at 70.
